Laboratory results taken from patent publication US10508113B2, “Inhibitors of tyrosine kinase 2 mediated signaling” (AbbVie Inc., priority 2018, dated 2019).

Molecular target: T1, Jak1 (Homo sapiens, UniProt P23458)
T1 construct: endogenous in cells; host or cells: TF1 cells
Assay: Jak1 (PSTAT3 TF1) alpha screen assay: inhibition of IL-6 induced phosphorylation of STAT3 in TF1 cells
Assay type: cell-based
Settings: calculated from tabulated EC50 data (Jak1 / Tyk2)
Procedure: 2. JAK1 (PSTAT3 TF1) ALPHA SCREEN ASSAY
IL-6 is known to transduce its signal through IL-6 receptor via Jak1. Activity against Jak1 was therefore measured by determining inhibition of IL-6 induced phosphorylation of STAT3 in TF1 cells.
Cell Type: TF1 Cells; Culture Medium: RPMI 1640 Medium, 2mM L-glutamine, 10% heat- inactivated fetal bovine serum (FBS), 10 mM hydroxyethyl piperazineethanesulfonic acid (HEPES), and 2 ng/mL recombinant human interleukin-6(IL-6); Assay Medium: Dulbecco's Modified Eagle Medium (DMEM) medium with 2 mM L-glutamine, 10 mM HEPES, 100 U/mL penicillin/streptomycin, 1.5 g/L sodium bicarbonate, 4.5 g/L glucose, 1 mM sodium pyruvate, 10% heat-inactivated FBS; Compound Preparation: Compounds are dissolved in 100% dimethyl sulfoxide (DMSO).
Day One—Starve Cells: 4 Flasks for one 384 plate (spin down @1000 rpm for 10 minutes and add RPMI 1640 Medium, 2 mM L-glutamine, 10% FBS, 10 mM HEPES with no IL-6 -incubate overnight).
Day Two—Compound Dilutions:
i. Manual 8-point 1:5 dilution curve: 5 mM top concentration dispensed in row A of a
Corning 96-well polypropylene plate, columns 2-12. DMSO dispensed in position A01 for low and high controls. Compounds were serially diluted 1:5 by adding 10 μL stock to […] DMSO down the plate.
ii. Media dilution of compounds: Serially diluted compounds were further diluted 1:12.5 in assay medium by adding 4 μL compound to 46 μL assay medium in a Corning 96-well polypropylene plate.
384 Alpha Screen Plate Set up: Transfer 2.5 μL/well of compound solution from assay media dilution plate. Replicates were vertical, one column of the 96-well dilution plate goes into one column on the 384-well plate twice. Plated 1×10^5 starved cells/well in 5 μL. Washed cells in 10 mL DMEM medium after spinning down. Brought cell pellet up in assay media. Counted live cells. Multiplied by dilution factor and 10,000 (constant) to get the concentration of viable cells. Multiplied by volume of assay media used to bring up cells to get the total number of live cells. Divided by 20,000,000 cells/mL to get the volume needed. Cells were plated at 5 μL/well in gray Alpha Screen 384-well plate. Spinned the plate to bring the contents to the bottom of the wells at 300 rpm for 60 seconds. Top final compound concentration: 25 μM. Sealed with adhesive and tapped gently. Incubated plate at 37° C. for 30 minutes. c. IL-6 Stimulation (pSTAT3)
Once cells were in incubator, immediately prepared working stock of IL-6 (100 ng/mL final concentration). IL-6 stock=10 μg/mL of IL-6 in phosphate buffered saline with 0.1% bovine serum albumin. Diluted 1:25 by adding 60 μL stock IL-6 to 1440 μL assay media. Added 2.5 μL IL-6 to each well. Spinned plate at 300 rpm briefly; tapped the plate gently before covering with an adhesive seal. Incubated plate at 37° C. for 30 minutes.
Added 2.5 μL of 5X Lysis buffer to each well. Incubated at room temperature on orbital shaker for 10 minutes.
e. Protein (A) Acceptor Beads Preparation:
Phosphorylated Signal Transducer and Activator of Transcription 3 (pSTAT3) was quantified using the PerkinElmer SureFire pSTAT3 (Tyrosine 705) Assay. Calculated total volume needed (wells×[…]×25%). Divided total volume by 5 to get volume of activation buffer. Subtracted volume of activation buffer from total volume and divide by 40 to get volume of acceptor beads (add last). Total volume−acceptor bead volume−activation buffer=volume of reaction buffer. Added 15 μL to each well and covered with foil. Shaked on orbital shaker for 2 hours at 500 rpm.
f. Streptavidin Donor Beads Preparation:
Calculated total volume needed (wells×[…]×25%). Divided total volume by 20 to get volume of donor beads (add last). Subtracted volume of donor beads from total volume to get volume of dilution buffer. Added 6 μL to each well and covered with foil. Shaked on orbital shaker overnight at 500 rpm.
Read plate on a Perkin Elmer Envision. […]

T1 sequence (P23458 whole entry): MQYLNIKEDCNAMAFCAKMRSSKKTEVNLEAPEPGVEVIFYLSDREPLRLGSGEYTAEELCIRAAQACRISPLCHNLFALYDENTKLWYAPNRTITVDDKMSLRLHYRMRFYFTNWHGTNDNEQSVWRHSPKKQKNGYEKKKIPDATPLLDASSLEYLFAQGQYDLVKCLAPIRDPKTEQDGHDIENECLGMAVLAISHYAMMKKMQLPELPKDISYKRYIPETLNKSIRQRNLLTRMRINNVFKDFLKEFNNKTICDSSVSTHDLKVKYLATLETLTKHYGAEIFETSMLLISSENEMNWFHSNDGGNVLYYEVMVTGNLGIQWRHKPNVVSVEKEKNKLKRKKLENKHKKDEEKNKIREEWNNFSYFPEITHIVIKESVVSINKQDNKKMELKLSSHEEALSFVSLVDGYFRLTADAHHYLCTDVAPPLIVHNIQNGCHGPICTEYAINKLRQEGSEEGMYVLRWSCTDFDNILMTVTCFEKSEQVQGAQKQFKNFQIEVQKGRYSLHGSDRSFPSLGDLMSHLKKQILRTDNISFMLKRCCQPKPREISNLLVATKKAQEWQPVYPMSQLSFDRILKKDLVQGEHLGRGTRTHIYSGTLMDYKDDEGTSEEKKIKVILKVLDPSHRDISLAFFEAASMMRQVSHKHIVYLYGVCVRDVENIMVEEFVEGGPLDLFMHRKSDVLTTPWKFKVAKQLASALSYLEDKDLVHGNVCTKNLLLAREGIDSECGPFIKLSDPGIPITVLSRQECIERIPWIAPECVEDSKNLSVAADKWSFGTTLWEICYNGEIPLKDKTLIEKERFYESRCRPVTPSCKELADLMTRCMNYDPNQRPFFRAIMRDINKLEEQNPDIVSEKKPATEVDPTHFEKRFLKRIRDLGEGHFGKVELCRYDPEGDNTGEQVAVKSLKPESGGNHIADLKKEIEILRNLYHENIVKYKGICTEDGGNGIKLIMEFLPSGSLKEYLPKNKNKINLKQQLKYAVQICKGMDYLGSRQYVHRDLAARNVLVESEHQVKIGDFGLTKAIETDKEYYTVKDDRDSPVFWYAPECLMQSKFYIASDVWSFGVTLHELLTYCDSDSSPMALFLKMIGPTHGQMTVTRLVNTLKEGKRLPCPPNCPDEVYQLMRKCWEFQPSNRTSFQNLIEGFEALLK

Row | Compound | Tyk2 selectivity over Jak1
1 | CC[C@@]1(c2cccc(-c3cn(C)c4cnc(NC(C)=O)cc34)n2)CCOC1 [Example 2.3, (S)-N-(3-(6-(3-ethyltetrahydrofuran-3-yl)pyridin-2-yl)-1-methyl-1H-pyrrolo[2,3-c]pyridin-5-yl)acetamide] | 188-fold
2 | CO[C@@]1(c2cc(OC3COC3)cc(-c3cn(C)c4cnc(NC(C)=O)cc34)n2)CCOC1 [Example 8, (R)-N-(3-(6-(3-Methoxytetrahydrofuran-3-yl)-4-(oxetan-3-yloxy)pyridin-2-yl)-1-methyl-1H-pyrrolo[2,3-c]pyridin-5-yl)acetamide] | 244-fold
3 | COc1cc(-c2cn([C@@H]3CCOC3)c3cnc(NC(C)=O)cc23)nc([C@]2(OC)CCOC2)c1 [Example 5.2, N-(3-(4-methoxy-6-((R)-3-methoxytetrahydrofuran-3-yl)pyridin-2-yl)-1-((R)-tetrahydrofuran-3-yl)-1H-pyrrolo[2,3-c]pyridin-5-yl)acetamide] | >641-fold
4 | Cn1cc(-c2cccc(C3(O)COC3)n2)c2cc(NC(N)=O)ncc21 [Example 14, 1-(3-(6-(3-hydroxyoxetan-3-yl)pyridin-2-yl)-1-methyl-1H-pyrrolo[2,3-c]pyridin-5-yl)urea] | 20-fold
5 | COc1cc(-c2cn(C)c3cnc(NC(C)=O)cc23)nc([C@]2(OC)CCOC2)c1 [Example 20, (R)-N-(3-(4-Methoxy-6-(3-methoxytetrahydrofuran-3-yl)pyridin-2-yl)-1-methyl-1H-pyrrolo[2,3-c]pyridin-5-yl)acetamide] | 328-fold
6 | CO[C@@]1(c2cc(C(F)F)cc(-c3cn([C@@H]4CCOC4)c4cnc(NC(N)=O)cc34)n2)CCOC1 [Example 12b.2, 1-(3-(4-(difluoromethyl)-6-((R)-3-methoxytetrahydrofuran-3-yl)pyridin-2-yl)-1-((R)-tetrahydrofuran-3-yl)-1H-pyrrolo[2,3-c]pyridin-5-yl)urea] | 2667-fold
7 | CO[C@@]1(c2cc(C(F)F)cc(-c3cn([C@H]4CCOC4)c4cnc(NC(N)=O)cc34)n2)CCOC1 [Example 12b.3, 1-(3-(4-(difluoromethyl)-6-((R)-3-methoxytetrahydrofuran-3-yl)pyridin-2-yl)-1-((S)-tetrahydrofuran-3-yl)-1H-pyrrolo[2,3-c]pyridin-5-yl)urea] | 1214-fold
8 | COc1cc(-c2cn(C)c3cnc(NC(N)=O)cc23)nc([C@@]2(OC)CCOC2)c1 [Example 12.7, (S)-1-(3-(4-methoxy-6-(3-methoxytetrahydrofuran-3-yl)pyridin-2-yl)-1-methyl-1H-pyrrolo[2,3-c]pyridin-5-yl)urea] | 81-fold
9 | CO[C@@]1(c2cc(C(F)F)cc(-c3cn(C)c4cnc(NC(N)=O)cc34)n2)CCOC1 [Example 12.5, (R)-1-(3-(4-(difluoromethyl)-6-(3-methoxytetrahydrofuran-3-yl)pyridin-2-yl)-1-methyl-1H-pyrrolo[2,3-c]pyridin-5-yl)urea] | 909-fold
10 | CO[C@]1(c2cc(OCC3COC3)cc(-c3cn(C)c4cnc(NC(C)=O)cc34)n2)CCOC1 [Example 6.2, (S)-N-(3-(6-(3-methoxytetrahydrofuran-3-yl)-4-(oxetan-3-ylmethoxy)pyridin-2-yl)-1-methyl-1H-pyrrolo[2,3-c]pyridin-5-yl)acetamide] | 50-fold
11 | COc1cc(-c2cn(C3COC3)c3cnc(NC(C)=O)cc23)nc([C@]2(OC)CCOC2)c1 [Example 5, (R)-N-(3-(4-methoxy-6-(3-methoxytetrahydrofuran-3-yl)pyridin-2-yl)-1-(oxetan-3-yl)-1H-pyrrolo[2,3-c]pyridin-5-yl)acetamide] | >901-fold
12 | CO[C@@]1(c2cc(C#N)cc(-c3cn([C@@H]4CC4(F)F)c4cnc(NC(N)=O)cc34)n2)CCOC1 [Example 12a.3, 1-(3-(4-cyano-6-((R)-3-methoxytetrahydrofuran-3-yl)pyridin-2-yl)-1-((R)-2,2-difluorocyclopropyl)-1H-pyrrolo[2,3-c]pyridin-5-yl)urea] | >1515-fold
13 | NC(=O)Nc1cc2c(-c3cccc(C4(O)COC4)n3)cn([C@@H]3CCOC3)c2cn1 [Example 15, (R)-1-(3-(6-(3-Hydroxyoxetan-3-yl)pyridin-2-yl)-1-(tetrahydrofuran-3-yl)-1H-pyrrolo[2,3-c]pyridin-5-yl)urea] | 80-fold
14 | CO[C@@]1(c2cc(C)cc(-c3cn([C@H]4C[C@@H](C#N)C4)c4cnc(NC(C)=O)cc34)n2)CCOC1 [Example 17.5, N-(1-((cis)-3-cyanocyclobutyl)-3-(6-((R)-3-methoxytetrahydrofuran-3-yl)-4-methylpyridin-2-yl)-1H-pyrrolo[2,3-c]pyridin-5-yl)acetamide] | 6400-fold
15 | CO[C@@]1(c2cc(C(F)F)cc(-c3cn(C4COC4)c4cnc(NC(N)=O)cc34)n2)CCOC1 [Example 12b.4, (R)-1-(3-(4-(difluoromethyl)-6-(3-methoxytetrahydrofuran-3-yl)pyridin-2-yl)-1-(oxetan-3-yl)-1H-pyrrolo[2,3-c]pyridin-5-yl)urea] | 889-fold
16 | CO[C@@]1(c2cc(C)cc(-c3cn([C@H]4C[C@H](C#N)C4)c4cnc(NC(C)=O)cc34)n2)CCOC1 [Example 17.4, N-(1-((trans)-3-cyanocyclobutyl)-3-(6-((R)-3-methoxytetrahydrofuran-3-yl)-4-methylpyridin-2-yl)-1H-pyrrolo[2,3-c]pyridin-5-yl)acetamide] | 157-fold
17 | CO[C@]1(c2cc(C)cc(-c3cn(C)c4cnc(NC(N)=O)cc34)n2)CCOC1 [Example 1b.3, (S)-1-(3-(6-(3-methoxytetrahydrofuran-3-yl)-4-methylpyridin-2-yl)-1-methyl-1H-pyrrolo[2,3-c]pyridin-5-yl)urea] | 10-fold
